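How tested: cells in 96-well plates exposed to compound for 48 hours at five concentrations. TGI is the concentration that stops growth completely.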
Columns and labels:
Assay in all cases: inhibition of tumour cell growth, NCI panel, 48 h
786-0 renal = system: 786-0 renal
CCRF-CEM leukemia = system: CCRF-CEM leukemia
COLO 205 colon = system: COLO 205 colon
EKVX NSCLC = system: EKVX NSCLC
HCC-2998 colon = system: HCC-2998 colon
HL-60(TB) leukemia = system: HL-60(TB) leukemia
HOP-62 NSCLC = system: HOP-62 NSCLC
HT29 colon = system: HT29 colon
KM12 colon = system: KM12 colon
MDA-MB-435 = system: MDA-MB-435
MDA-N = system: MDA-N
MOLT-4 leukemia = system: MOLT-4 leukemia
NCI-H23 lung = system: NCI-H23 lung
PC-3 prostate = system: PC-3 prostate
RPMI-8226 leukemia = system: RPMI-8226 leukemia
RXF 393 renal = system: RXF 393 renal
SF-268 CNS = system: SF-268 CNS
SK-OV-3 ovarian = system: SK-OV-3 ovarian
SN12C renal = system: SN12C renal
UACC-257 melanoma = system: UACC-257 melanoma

Compound	TGI (786-0 renal) [µM]	TGI (CCRF-CEM leukemia) [µM]	TGI (COLO 205 colon) [µM]	TGI (EKVX NSCLC) [µM]	TGI (HCC-2998 colon) [µM]	TGI (HL-60(TB) leukemia) [µM]	TGI (HOP-62 NSCLC) [µM]	TGI (HT29 colon) [µM]	TGI (KM12 colon) [µM]	TGI (MDA-MB-435) [µM]	TGI (MDA-N) [µM]	TGI (MOLT-4 leukemia) [µM]	TGI (NCI-H23 lung) [µM]	TGI (PC-3 prostate) [µM]	TGI (RPMI-8226 leukemia) [µM]	TGI (RXF 393 renal) [µM]	TGI (SF-268 CNS) [µM]	TGI (SK-OV-3 ovarian) [µM]	TGI (SN12C renal) [µM]	TGI (UACC-257 melanoma) [µM]
Cc1ccc(S(=O)(=O)N/N=C2\CCC3(O)CC2(C)CCC2C3CC2(C)C)cc1 (stereo not drawn)	> 100	> 100	46.5	> 100	> 100	> 100	> 100	> 100	> 100	> 100	> 100	> 100	> 100	66.2	> 100	> 100	> 100	> 100	> 100	> 100
O=[N+]([O-])c1ccc2sc(/C=N/c3ccccn3)cc2c1	> 100	> 100	> 100	> 100	> 100	> 100	> 100	> 100	> 100	> 100	> 100	53.5	> 100	> 100	88.9	> 100	94	> 100	> 100	> 100
C=CCNC1=C2C[C@@H](C)C[C@H](OC)[C@H](O)[C@@H](C)/C=C(\C)[C@H](OC(N)=O)[C@@H](OC)/C=C\C=C(/C)C(=O)NC(=CC1=O)C2=O	58.3	10.6	1.67	31.4	2.82	1.06	23.1	12.1	0.237	17	15	13	8.3	40.7	26.2	10.1	49.6	58.8	19.4	21.3
COC(=O)Cc1c([C@H]2[C@H](CC(=O)OC)c3ccccc3N2S(=O)(=O)c2ccc(C)cc2)[nH]c2ccccc12	> 100	> 100	> 100	> 100	> 100	> 100	> 100	> 100	> 100	> 100	> 100	> 100	> 100	> 100	> 100	> 100	> 100	> 100	> 100	> 100
c1ccc(-c2c(-c3cccs3)[nH]c(-c3cccs3)c2-c2ccccn2)nc1	53	52.5	30.6	65.4	44.3	> 100	–	30.3	62.6	43.6	> 100	38.3	> 100	30.8	68.5	53.5	49.8	51.3	67.9	43.6
O=[N+]([O-])c1cc(N=Nc2c(O)ccc3cc(S(=O)(=O)O)ccc23)c(O)c([N+](=O)[O-])c1	> 100	> 100	> 100	> 100	–	> 100	> 100	> 100	> 100	> 100	> 100	> 100	> 100	> 100	> 100	> 100	> 100	> 100	> 100	> 100
